We go through one compound from patent US20050019425A1, “Composition and method” (priority 2001, published 2005).

In one series the test system is Hair growth of Beagles. In words: Hair growth measurement in adult beagles fed diets with various levels of selenium. It is filed as in vivo, dog (Beagle). The text has this: Adult beagles of both male and females are used. They are between 1.2 and 3.7 years of age at the start of the experiment.
(§1) Study Design: Thirty-six adult dogs are divided into six groups of six dogs in each group based on their age, gender and body condition score so that the averages of those three criteria are similar among groups. All dogs are given the basal diet for three weeks (pre-treatment period) before they are allocated to one of the experimental diets. The third week of the pre-treatment period is considered as week 0 of the study. Hair growth is measured in weeks 0, 11 and 22 of the study using the method described below. Dogs are fed with the experimental diets for 24 weeks.
(§2) A torula yeast basal diet is used. The basal diet is nutritionally complete and balanced for an adult dog except for selenium. Different amounts of selenium (as selenomethionine) are added into the basal diet to form six experimental diets which contain 0, 0.05, 0.1, 0.5, 1 or 5 mg selenium/kg diet dry matter, respectively. Selenium concentrations in the experimental diets are confirmed by chemical analyses. The analyzed dietary selenium concentrations were 0.034, 0.085, 0.123, 0.527, 1.025 and 5.045 mg/kg dry matter, respectively.
Hair Growth Measurement: Hairs in an area of […] on the left side of the body above the hind leg and about 3 cm away from the spinal are clipped with an electronic clipper (Oster Pro™ Model 78400-01A, blade size: 40.1 mm, Oster Elite™). The hair is cut as close to the skin as possible. A tattoo dot of about 1 mm in diameter is made in the center of the clipped area using a tattoo marker (Spaulding Special Electric Tattoo Marker, Model SSEMK). Hair growth is measured by taking photographs from the same clipped area twice using the tattoo dot as a marker. The first photograph is taken right after the clipping and the second photograph four days later. A Polaroid close-up camera (CU-5) and Polaroid 665 films are used to take photographs. A glass slide is attached to the front frame of the camera to press hairs to the skin to minimize errors caused by the angle formed between standing hair and the skin. The image is magnified three times by the camera. Same exposure conditions are used for all dogs in the study. On each day of photograph shooting, a photograph is also taken of a ruler with clear markers under the same conditions and serves as a reference. After exposure, both prints and negatives of the films are treated according to the use directions. The negative films provide sharp and clear images of hairs and are used for hair growth measurement. The negative films are scanned (EPSON Expression 836XL) into a computer. Afterwards, the length of primary hairs in the film is measured using an image analyzing software (BioScan Optimas). The difference of the average hair lengths between the first and the second photographs from the same dog is the hair growth during the four-day period.

The nature of series [1]: Clinical signs, food intake, body weight, blood and thyroid hormone measurements in dogs during the 24-week feeding study. It is filed as in vivo, dog (Beagle). The conditions noted are these: diets with 0 to 5 mg added selenium/kg, study period 24 weeks. As to the method: as §1, §2

As for `C[Se]CC[C@H](N)C(=O)O` [selenium, selenomethionine], the Hair growth in the series with Hair growth of Beagles (dietary Se 0.034 mg/kg dry matter (0 added), Week 0 (pre-treatment, basal diet)) was 0.21 mm/day; in the series on Hair growth of Beagles (dietary Se 0.034 mg/kg dry matter (0 added), Week 11) it was 0.12 mm/day; in the series on Hair growth of Beagles (dietary Se 0.034 mg/kg dry matter (0 added), Week 22), 0.12 mm/day; in the series on Hair growth of Beagles (dietary Se 0.085 mg/kg dry matter (0.05 added), Week 0 (pre-treatment, basal diet)), 0.18 mm/day; in the series with Hair growth of Beagles (dietary Se 0.085 mg/kg dry matter (0.05 added), Week 11) it was 0.15 mm/day; with Hair growth of Beagles (dietary Se 0.085 mg/kg dry matter (0.05 added), Week 22) it was 0.11 mm/day. The Hair growth with Hair growth of Beagles (dietary Se 0.123 mg/kg dry matter (0.1 added), Week 0 (pre-treatment, basal diet)) is listed as 0.13 mm/day; in the series with Hair growth of Beagles (dietary Se 0.123 mg/kg dry matter (0.1 added), Week 11), 0.26 mm/day; with Hair growth of Beagles (dietary Se 0.123 mg/kg dry matter (0.1 added), Week 22) it was 0.20 mm/day; in the series with Hair growth of Beagles (dietary Se 0.527 mg/kg dry matter (0.5 added), Week 0 (pre-treatment, basal diet)), 0.15 mm/day; with Hair growth of Beagles (dietary Se 0.527 mg/kg dry matter (0.5 added), Week 11), 0.22 mm/day; in the series on Hair growth of Beagles (dietary Se 0.527 mg/kg dry matter (0.5 added), Week 22), 0.23 mm/day. For the same compound, the Hair growth is on record as 0.18 mm/day in the series on Hair growth of Beagles (dietary Se 1.025 mg/kg dry matter (1 added), Week 0 (pre-treatment, basal diet)); 0.26 mm/day in the series on Hair growth of Beagles (dietary Se 1.025 mg/kg dry matter (1 added), Week 11); 0.20 mm/day in the series on Hair growth of Beagles (dietary Se 1.025 mg/kg dry matter (1 added), Week 22); 0.20 mm/day in the series on Hair growth of Beagles (dietary Se 5.045 mg/kg dry matter (5 added), Week 0 (pre-treatment, basal diet)); 0.14 mm/day with Hair growth of Beagles (dietary Se 5.045 mg/kg dry matter (5 added), Week 11); 0.13 mm/day with Hair growth of Beagles (dietary Se 5.045 mg/kg dry matter (5 added), Week 22). Also, the “Effect on hair growth of dogs (conclusion)” value in the series on Hair growth of Beagles (dietary selenium concentrations from 0.1 to about 4.5 mg selenium/kg diet) is listed as “maximize hair growth of dogs”. For the same compound, the “Rate of hair growth compared between diet groups” value with Hair growth of Beagles (diets containing 0.1, 0.5 or 1 mg selenium/kg vs 0, 0.05 or 5 mg selenium/kg, week 11 and 22) is recorded as “significantly (p<0.05) higher rate of hair growth”. Also, the “Difference in hair growth among groups” value with Hair growth of Beagles (week 0 (pre-treatment)) is “no difference in hair growth among groups”. In addition, the “Average food intake and body weights” value in series [1] is on record as “not affected by the dietary treatments”. Further, the “Blood CBC and chemistry measurements, serum total thyroxine and 3,5,3'-triiodothyronine” value in series [1] was “within the normal ranges”.
